Assay results: patent publication US11999727B2 (Tango Therapeutics, Inc., priority 2020, dated 2024)

Tests used:
[1] = system: HAP1 MTAP-deleted cell line; assay: Viability assay, MTAP-deleted cell line; assay type: cell-based; details: Homo sapiens, read-out: HAP1 MTAP deleted viability
Source text: Table 1 additionally indicates IC50 values in a viability assay for the MTAP-deleted cell line (column 10), indicating the effect of treatment with compound on cell survival.

[2] = system: HAP1 MTAP-intact cell line; assay: SDMA in-cell western assay, HAP1 MTAP-intact; assay type: cell-based; details: Homo sapiens, HAP1, SDMA in-cell western, HAP1 MTAP-intact; read-out: MTAP HAP1 intact IC50
Summary of the method: (§1)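 Isogenic HAP1 pair: the MTAP-intact line expresses endogenous MTAP, and the deleted line is MTAP-null. Symmetric dimethylarginine was detected by in-cell western and IC50 values derived for each line.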

[3] = system: HAP1 MTAP-deleted cell line; assay: SDMA in-cell western assay, HAP1 MTAP-deleted; assay type: cell-based; details: for IC50: Homo sapiens, HAP1, SDMA in-cell western, HAP1 MTAP-deleted; for MTAP intact/deleted ratio: SDMA in-cell western
Summary of the method: as §1

PRMT5 [4] = molecular target: T1, PRMT5 (Homo sapiens, UniProt O14744); assay: PRMT5 biochemical IC50 assay with MTA as cofactor; details: PRMT5, MTA as cofactor; read-out: MTA IC50
T1 construct: purchased Viva (custom protein)
T1 sequence (O14744 whole entry): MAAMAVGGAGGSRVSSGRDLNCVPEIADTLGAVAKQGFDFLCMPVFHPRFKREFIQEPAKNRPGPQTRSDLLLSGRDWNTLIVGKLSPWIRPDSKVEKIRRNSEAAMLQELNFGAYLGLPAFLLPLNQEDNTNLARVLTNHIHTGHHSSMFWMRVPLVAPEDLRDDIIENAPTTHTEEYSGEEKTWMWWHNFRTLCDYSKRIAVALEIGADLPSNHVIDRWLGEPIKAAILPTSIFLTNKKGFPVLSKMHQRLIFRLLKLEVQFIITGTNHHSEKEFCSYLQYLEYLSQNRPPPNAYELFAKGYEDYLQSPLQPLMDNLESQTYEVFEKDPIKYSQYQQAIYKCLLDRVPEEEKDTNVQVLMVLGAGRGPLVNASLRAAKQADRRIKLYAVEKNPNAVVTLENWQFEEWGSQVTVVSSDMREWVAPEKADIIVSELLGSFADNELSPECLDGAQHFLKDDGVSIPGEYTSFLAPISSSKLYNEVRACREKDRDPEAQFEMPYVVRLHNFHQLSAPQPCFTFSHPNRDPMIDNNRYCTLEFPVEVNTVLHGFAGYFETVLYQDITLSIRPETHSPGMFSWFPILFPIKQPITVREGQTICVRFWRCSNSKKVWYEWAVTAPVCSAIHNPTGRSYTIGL
T1 sequence (Q9BQA1 whole entry partner): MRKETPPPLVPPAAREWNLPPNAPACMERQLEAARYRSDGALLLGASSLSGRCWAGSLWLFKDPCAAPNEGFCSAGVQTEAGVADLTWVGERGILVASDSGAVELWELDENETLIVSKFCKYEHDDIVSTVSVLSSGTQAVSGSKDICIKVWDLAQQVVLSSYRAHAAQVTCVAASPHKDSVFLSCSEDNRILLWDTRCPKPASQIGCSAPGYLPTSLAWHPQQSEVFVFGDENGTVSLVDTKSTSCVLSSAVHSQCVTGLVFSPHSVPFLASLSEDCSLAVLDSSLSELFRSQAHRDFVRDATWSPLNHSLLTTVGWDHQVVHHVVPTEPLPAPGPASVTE

PRMT5 [5] = molecular target: T1, PRMT5; assay: PRMT5 biochemical IC50 assay with SAM as cofactor; details: PRMT5, SAM as cofactor; read-out: SAM IC50
PRMT5 [6] = molecular target: T1, PRMT5; assay: PRMT5 biochemical IC50 assay with no cofactor; details: PRMT5, no cofactor
Source text: Table 1 indicates IC50 values (μM) against PRMT5 for exemplary compounds in the presence of SAM as cofactor, with no cofactor, and with MTA as cofactor, respectively (columns 4-6). […] Ki values can be calculated from the IC50 values as described in the Examples section. As detailed in the Examples section, for the assay performed in the presence of SAM, IC50=Ki×1.5 (Ki=IC50/1.5).

[7] = HAP1, viability assay, MTAP-deleted cell line
[8] = read-out: HAP1 MTAP deleted IC50
[9] = IC50 ratio HAP1 MTAP-intact vs HAP1 MTAP-deleted
[10] = IC50 ratio HAP1 MTAP-intact / HAP1 MTAP-deleted
[11] = HAP1, viability assay, HAP1 MTAP-deleted
[12] = read-out: HAP 1 MTAP deleted IC50
[13] = read-out: No Cofactor/ rel IC50
[14] = HAP1, viability IC50, MTAP-deleted cell line

SMILES | IC50 [2] [µM] | IC50 [3, 8] [µM] | IC50 (PRMT5 [4]) [µM] | IC50 (PRMT5 [5]) [µM] | IC50 (PRMT5 [6]; read-out: No Cofactor/rel IC50) [µM] | IC50 [3, 12] [µM] | IC50 (PRMT5 [6]; [13]) [µM] | IC50 [1, 7] [µM] | MTAP intact/deleted ratio [3, 9] | MTAP intact/deleted ratio [3, 10] | IC50 [1, 11] [µM] | IC50 ([1]; HAP1, viability, HAP1 MTAP-deleted cell line) [µM] | IC50 [1, 14] [µM]
C[C@@H]1CC[C@@H](c2ccc(F)nc2)N(C(=O)C(=O)Nc2cncc(C(N)=O)c2)C1 (racemic) [Compound 276, rac-5-{2-[(2R,5S)-2-(6-Fluoropyridin-3-yl)-5-methylpiperidin-1-yl]-2-oxoacetamido}pyridine-3-carboxamide] | > 1 | 0.1 to 1 | < 0.05 | 0.05 to 0.5 | 0.05 to 0.5 | – | – | > 10 | – | A (an IC50 ratio greater than or equal to 10 fold) | – | – | –
Cc1cccc([C@H]2CC[C@H](C)CN2C(=O)C(=O)Nc2cncc(C(N)=O)c2)c1 (single isomer, unassigned) [Compound 219] | > 1 | < 0.1 | < 0.05 | 0.05 to 0.5 | < 0.05 | – | – | 1 to 10 | – | A (an IC50 ratio greater than or equal to 10 fold) | – | – | –
Cc1cc(NC(=O)C(=O)N2CC(C)CCC2C2CNC(=O)C2)cnc1N (stereo not shown) [Compound 210, N-(6-amino-5-methylpyridin-3-yl)-2-(5-methyl-2-(5-oxopyrrolidin-3-yl)piperidin-1-yl)-2-oxoacetamide] | > 1 | > 1 | 0.05 to 0.5 | > 0.5 | 0.05 to 0.5 | – | – | > 10 | – | B (an IC50 ratio greater than or equal to 3 fold but lower than 10 fold) | – | – | –
C[C@@H]1CC[C@@H](c2ccc(N[C@@H]3CCN(C)C3=O)cc2)N(C(=O)C(=O)Nc2cncc(C(N)=O)c2)C1 (racemic) [Compound 430, 5-[[2-[(2S,5R)-5-Methyl-2-[4-[[(3R)-1-methyl-2-oxo-pyrrolidin-3-yl]amino]phenyl]-1-piperidyl]-2-oxo-acetyl]amino]pyridine-3-carboxamide] | > 1 | < 0.1 | 0.05 to 0.5 | 0.05 to 0.5 | 0.05 to 0.5 | – | – | 1 to 10 | – | A (an IC50 ratio greater than or equal to 10 fold) | – | – | –
Cc1cc(NC(=O)C(=O)N2C[C@H](C)CC[C@H]2[C@H]2CC[C@H](C(C)(C)C)CC2)cnc1N (single isomer, unassigned) [Compound 260] | > 1 | 0.1 to 1 | < 0.05 | 0.05 to 0.5 | 0.05 to 0.5 | – | – | 1 to 10 | – | C (an IC50 ratio of less than 3 fold) | – | – | –
Cc1cc([C@@H]2CC[C@@H](C)CN2C(=O)C(=O)Nc2cncc(C(N)=O)c2)ccc1O (single isomer, unassigned) [Compound 323] | 0.1 to 1 | < 0.1 | < 0.05 | 0.05 to 0.5 | < 0.05 | – | – | < 1 | – | A (an IC50 ratio greater than or equal to 10 fold) | – | – | –
Cc1cncc(NC(=O)C(=O)N2C[C@H](C)CC[C@H]2c2ccc(C)c(C)c2)c1 (single isomer, unassigned) [Compound 21] | > 1 | – | 0.05 to 0.5 | 0.05 to 0.5 | – | > 1 | 0.05 to 0.5 | > 10 | – | B (an IC50 ratio greater than or equal to 3 fold but lower than 10 fold) | – | – | –
C[C@@H]1CC[C@@H](c2ccc3c(c2)OCC3)N(C(=O)C(=O)Nc2cncc(C(N)=O)c2)C1 (racemic) [Compound 405, rac-5-{2-[(2R,5S)-2-(2,3-Dihydro-1-benzofuran-6-yl)-5-methylpiperidin-1-yl]-2-oxoacetamido}pyridine-3-carboxamide] | > 1 | < 0.1 | 0.05 to 0.5 | 0.05 to 0.5 | 0.05 to 0.5 | – | – | 1 to 10 | – | A (an IC50 ratio greater than or equal to 10 fold) | – | – | –

Continued, in another order:

IC50 [2] [µM] | IC50 [3, 8] [µM] | IC50 (PRMT5 [4]) [µM] | IC50 (PRMT5 [5]) [µM] | IC50 (PRMT5 [6]; read-out: No Cofactor/rel IC50) [µM] | IC50 [3, 12] [µM] | IC50 (PRMT5 [6]; [13]) [µM] | SMILES | IC50 [1, 7] [µM] | MTAP intact/deleted ratio [3, 9] | MTAP intact/deleted ratio [3, 10] | IC50 [1, 11] [µM] | IC50 ([1]; HAP1, viability, HAP1 MTAP-deleted cell line) [µM] | IC50 [1, 14] [µM]
0.1 to 1 | < 0.1 | < 0.05 | 0.05 to 0.5 | < 0.05 | – | – | CCc1cc(NC(=O)C(=O)N2CC(C)CCC2c2ccc(N3CCC4C(CCCN4C)C3)cc2)cnc1N (single isomer, unassigned) [Compound 1111] | < 1 | A (an IC50 ratio greater than or equal to 10 fold) | – | – | – | –
< 0.1 | < 0.1 | < 0.05 | < 0.05 | < 0.05 | – | – | COc1ncc(NC(=O)C(=O)N2C[C@@H](C)CC[C@@H]2c2ccc3sc(CCN(C)C)nc3c2)cc1C(N)=O (single isomer, unassigned) [Compound 1146] | < 1 | A (an IC50 ratio greater than or equal to 10 fold) | – | – | – | –
> 1 | 0.1 to 1 | > 0.5 | > 0.5 | > 0.5 | – | – | Cc1cc(NC(=O)C(=O)N2C[C@@H](C)CC[C@@H]2c2cccc3[nH]ncc23)cnc1N (single isomer, unassigned) [Compound 790] | – | – | A (an IC50 ratio greater than or equal to 10 fold) | > 10 | – | –
> 1 | – | < 0.05 | < 0.05 | – | < 0.1 | < 0.05 | C[C@H]1CC[C@H](c2ccc3sc(C4CCN(C)CC4)nc3c2)N(C(=O)C(=O)Nc2cnc(N)c([C@H]3CCOC3)c2)C1 (single isomer, unassigned) [Compound 1312] | – | – | – | – | < 1 | –
0.1 to 1 | < 0.1 | < 0.05 | 0.05 to 0.5 | < 0.05 | – | – | CCc1cc(NC(=O)C(=O)N2C[C@@H](C)CC[C@@H]2c2ccc3sc(C)nc3c2)cnc1N (single isomer, unassigned) [Compound 800] | – | – | A (an IC50 ratio greater than or equal to 10 fold) | < 1 | – | –
> 1 | – | 0.05 to 0.5 | 0.05 to 0.5 | > 0.5 | > 1 | – | C[C@@H]1CC[C@@H]([C@H]2CCC[C@@H](O)C2)N(C(=O)C(=O)Nc2cncc(C(N)=O)c2)C1 (single isomer, unassigned) [Compound 531] | – | – | B (an IC50 ratio greater than or equal to 3 fold but lower than 10 fold) | – | – | > 10
> 1 | < 0.1 | 0.05 to 0.5 | 0.05 to 0.5 | 0.05 to 0.5 | – | – | CNc1ccc([C@@H]2CC[C@@H](C)CN2C(=O)C(=O)Nc2cnc(N)c(C)c2)cc1 (racemic) [Compound 498, N-(6-amino-5-methyl-3-pyridyl)-2-[(2S,5R)-5-methyl-2-[4-(methylamino)phenyl]-1-piperidyl]-2-oxo-acetamide] | < 1 | – | A (an IC50 ratio greater than or equal to 10 fold) | – | – | –
> 1 | – | < 0.05 | 0.05 to 0.5 | < 0.05 | < 0.1 | – | CCc1cc(NC(=O)C(=O)N2C[C@@H](C)CC[C@@H]2c2ccc3c(c2)CNC3=O)cnc1N (single isomer, unassigned) [Compound 696, N-(6-amino-5-ethylpyridin-3-yl)-2-(5-methyl-2-(1-oxoisoindolin-5-yl)piperidin-1-yl)-2-oxoacetamide] | – | – | A (an IC50 ratio greater than or equal to 10 fold) | – | – | 1 to 10
> 1 | – | > 0.5 | > 0.5 | > 0.5 | 0.1 to 1 | – | Cc1cc(NC(=O)C(=O)N2C[C@@H](C)CC[C@@H]2c2ccc3nn(C)cc3c2)cnc1N (single isomer, unassigned) [Compound 1040] | > 10 | – | A (an IC50 ratio greater than or equal to 10 fold) | – | – | –
